Source: publication PMC11574045, “A cofactor-induced repressive type of transcription factor condensation can be induced by synthetic peptides to suppress tumorigenesis” (The EMBO Journal, 2024)
Ends that are not written are not given here.

Legend:
[1] = target: T1, TEAD4 (Homo sapiens, UniProt Q15561); test: Dynamic light scattering (DLS) of TEAD4 oligomerization; assay type: biochemical; details: after 10–20 min incubation with glup (10 μg/ml); TEAD4:glup molar ratio 10:1, 4 °C; DLS at 25 °C
T1 construct: His; made in house; host or cells: Escherichia coli BL21(DE3)
Experimental: In the case of glup, the mixtures were incubated at 4 °C for various periods of time as indicated in related figures. And then the mixtures were subjected to dynamic light scattering analysis at 25 °C. Scattered light was measured at a 90° angle at a wavelength of 658 nm.

[2] = test system: GFP-TEAD4 condensates in HEK293FT cells; test: FRAP of TEAD4 condensates in live cells; assay type: cell-based; details: GLUP-treated HEK293FT cells
Experimental: For FRAP analysis, cells were seeded at a confluency of ~30% on a 35-mm glass-bottomed dish (Cellvis D35C4-20-1-N). Live cell imaging was carried out using a Leica SP8 confocal microscope (Leica, Germany) with a 63× oil immersion objective lens. A defined region with a diameter of ~1 μm was photobleached by the equipped laser at ~90% power intensity. Fluorescence intensities of the region were recorded by carrying out time-lapse live imaging with a 1.29 s interval and further quantified using Fiji ImageJ software.

[3] = test system: HGC-27 cells; test: Colony formation; assay type: cell-based, human; details: colony formation: GLUP 2 μg/ml (1 μM) every 2 days for 2 weeks
Experimental: (A) Cell viability levels of HGC-27 cells treated with indicated concentrations (0, 5, 10, 20, 40 μg/ml) of GLUP for 48 h (three biological replicates, n = 3). Data shown as means ± SD represent the representative results from two independent experiments. (B) Colony formation of HGC-27 cells treated with GLUP every 2 days for a 2-week duration (three biological replicates, n = 3). GLUP, 2 μg/ml (1 μM). (C) Cell viability levels of the indicated cells (from 10 different lines) treated with GLUP. […] IC50 values for the treatments of these cells with GLUP (lower). […] The box plots showing the minima, maxima, center, bounds of box and whiskers and percentiles (upper quartile, median and lower quartile). Data shown as means ± SD represent the representative results from two independent experiments. Significance was tested using the unpaired t test, ***p < 0.001. (D) Cell viability of TEAD4-overexpressing AGS cells treated with GLUP for 48 h (three biological replicates, n = 3). Data shown as means ± SD represent the representative results from two independent experiments. (E) Cell viability levels of four lines of patient-derived cells (PDCs) treated with GLUP. […] The quantification graph represents the data collected from 14 cells (n = 14). […] Tumor areas were measured (right, n = 8/group) and indicated in red circles. […]

[4] = Pharmacokinetics assay; assay type: in vivo, mouse; details: 10 mg/kg
Experimental: Blood samples were obtained at 0, 0.17, 0.33, 0.5, 0.67, 0.83, 1, 2, 4, 6, 8, 10, 12, and 24 h after intraperitoneally injected administration of FAM-GLUP. These blood samples were then allowed to coagulate at room temperature for 4 h, and then were subjected to centrifugation at 3000 × g at 4 °C for 10 min in order to separate the plasma. The plasma samples were analyzed using an Ultra Performance Liquid Chromatography system (UPLC, Waters, Milford, MA). Pharmacokinetic parameters were calculated using Phoenix^TM WinNonlin® software (version 6.1.0.173; Pharsight Corp., Mountain View, CA).

[5] = test system: WT or TEAD4KO HGC-27 cells; test: Cut&Tag; assay type: cell-based, human; details: GLUP 10 μg/ml (5 μM)
[6] = target: T2, TEAD4-DNA (Homo sapiens, UniProt Q15561); test: DAPI imaging of M-CAT DNA organization with purified proteins; assay type: biochemical; details: GLUP 1 μg/ml (0.5 μM)
T2 construct: His; made in house; host or cells: Escherichia coli BL21(DE3)
Experimental: LLPS is considered as principle for chromosome compartmentalization and condensation (Hildebrand and Dekker, [2020]; Shin et al, [2018]). […] To test this hypothesis, we used confocal microscopy to observe the morphology of M-CAT DNA (Fig. 4D). […] When VGLL4 protein was added into the mixture, the DNA chains appeared more aggregated and tangled (Fig. 4D).
(§1) To confirm cellular entry of GLUP, we performed immunostaining of live cells treated with a fluorescein-labeled version of the peptide (FAM-GLUP). […] We then examined the potential effect of GLUP on TEAD4-mediated perturbation of DNA conformation.

[7] = test system: CTGF; test: RNA-scope of CTGF in tumor tissues; assay type: in vivo, mouse; details: tumors of GLUP-treated mice
Experimental: RNA-scope was performed according to manufacturer’s protocols (RNAscope Red Detection Kit, ACDbio, 322360). Briefly, the tumor sections (3 μm thickness) were obtained from MNU-generated gastric tumor tissues. The sections were deparaffinized, retrieved, and then hybridized with Ctgf probes following the manufacturer’s instructions (ACD, Hayward, CA, USA). Subsequently, the signal of hybridized probes was further visualized using RED dye-labeled probes. Finally, the samples were redyed, this time with hematoxylin, and mounted with VectaMount Permanent Mounting Medium (Vector Laboratories, Burlingame, CA, USA), and photographed using a Nikon Upright Fluorescence Microscope (Nikon, Japan). Positive and negative control probes were used for each experiment to help derive conclusions from the data.

[8] = test system: chromatin; test: N-SIM imaging of DAPI-labeled chromatin in cells; assay type: cell-based; details: GLUP 1 μg/ml (0.5 μM)
Source text: Next, we used structure illumination microscopy (N-SIM) to examine deformation of DAPI-labeled chromatin in cells overexpressing VGLL4. […] To further address this issue, we performed colloidal gold staining using TEAD4 antibody to observe the status of chromatin around TEAD4.
as §1

T2 sequence (Q15561 whole entry): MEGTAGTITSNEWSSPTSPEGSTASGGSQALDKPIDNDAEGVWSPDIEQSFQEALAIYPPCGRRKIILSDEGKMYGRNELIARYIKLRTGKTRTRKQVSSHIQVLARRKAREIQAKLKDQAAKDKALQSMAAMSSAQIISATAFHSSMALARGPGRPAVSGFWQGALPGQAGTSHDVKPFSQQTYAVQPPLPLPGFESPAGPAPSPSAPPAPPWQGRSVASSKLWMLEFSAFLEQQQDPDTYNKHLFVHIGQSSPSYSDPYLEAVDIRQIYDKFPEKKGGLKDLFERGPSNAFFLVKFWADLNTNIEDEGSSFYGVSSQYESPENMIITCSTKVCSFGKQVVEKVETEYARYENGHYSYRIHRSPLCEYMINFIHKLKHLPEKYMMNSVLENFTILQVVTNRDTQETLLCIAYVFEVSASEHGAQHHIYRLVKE
T1 sequence (Q15561 whole entry): as above

RRVCVHFHFSLSLR-NH2 (C-terminus assumed) [glup]
TEAD4 oligomerization by DLS [1]: formed dimers or oligomers of high molecular weight
mobile fraction (FRAP) [2]: about 62%
Viability and colony formation [3]: obvious reduction in both the viability and colony formation
half-life ([4]; mouse peripheral blood/plasma, FAM-GLUP intraperitoneal, sampling 0–24 h, UPLC, WinNonlin): over 4 h
plasma levels of GLUP, max ([4]; mouse, as read by Referee #1 from Supp. Fig. 6K of the submitted version): around 0.15 µg/ml
H3K27me3 signals at 3 kb regions flanking TSS ([5]; TEAD4-depleted HGC-27 cells): no such effect was detected
H3K27me3 signals at 3 kb regions flanking TSS ([5]; WT HGC-27 cells): dramatically strengthened the signals of H3K27me3
Effect on TEAD4-mediated DNA conformation [6]: strongly promoted TEAD4-mediated formation of DNA aggregations and tangles
Expression of TEAD4 target gene CTGF in tumor tissue [7]: sharply decreased in a dose-dependent manner
Effect on chromatin distribution [8]: substantially disturbed chromatin distribution and organization
